Measurements: US9181273B2, “Morpholine-spirocyclic piperidine amides as modulators of ion channels” (Vertex Pharmaceuticals Incorporated, priority 2011, dated 2015)

Biological target: human NaV subtype, like NaV 1.7 (Homo sapiens, UniProt Q15858)
Test: E-VIPR optical membrane potential assay with electrical stimulation
Format: cell-based
Details: active against one or more sodium channels; assay and NaV subtype not specified for Table 3; read-out: IC50 Binned Activity Data
Text: Sodium channels are voltage-dependent proteins that can be activated by inducing membrane voltage changes by applying electric fields. […] The instrument comprises a microtiter plate handler, an optical system for exciting the coumarin dye while simultaneously recording the coumarin and oxonol emissions, a waveform generator, a current- or voltage-controlled amplifier, and a device for inserting electrodes in well. Under integrated computer control, this instrument passes user-programmed electrical stimulus protocols to cells within the wells of the microtiter plate.
24 hours before the assay on E-VIPR, HEK cells expressing human NaV subtype, like NaV 1.7, are seeded in 384-well poly-lysine coated plates at 15,000-20,000 cells per well. Other subtypes are performed in an analogous mode in a cell line expressing the NaV of interest. […] Cells are grown in vented cap flasks, in 90% humidity and 10% CO2, to 100% confluence. They are usually split by trypsinization 1:10 or 1:20, depending on scheduling needs, and grown for 2-3 days before the next split.
To make the solution Add volume of 10% Pluronic F127 stock equal to volumes of CC2-DMPE+DiSBAC6(3). The order of preparation is first mix Pluronic and CC2-DMPE, then add DiSBAC6(3) while vortexing, then add Bath1+β-Cyclodextrin.
1) Pre-spot compounds (in neat DMSO) into compound plates. […] Final compound plate volume will be 80 μL (80-fold intermediate dilution from 1 μL DMSO spot; 160-fold final dilution after transfer to cell plate).
2) Prepare Hexyl Dye Solution.
3) Prepare cell plates. On the day of the assay, medium is aspirated and cells are washed three times with 100 μL of Bath1 Solution, maintaining 25 μL residual volume in each well.
4) Dispense 25 μL per well of Hexyl Dye Solution into cell plates. Incubate for 20-35 minutes at room temp or ambient conditions.
5) Dispense 80 μL per well of Bath1 into compound plates. Acid Yellow-17 (1 mM) is added and Potassium Chloride can be altered from 4.5 to 20 mM depending on the NaV subtype and assay sensitivity.
6) Wash cell plates three times with 100 μL per well of Bath1, leaving 25 μL of residual volume. Then transfer 25 uL per well from Compound Plates to Cell Plates. Incubate for 20-35 minutes at room temp/ambient condition
7) Read Plate on E-VIPR. Use the current-controlled amplifier to deliver stimulation wave pulses for typically 9 seconds and a scan rate of 400 Hz. A pre-stimulus recording is performed for 0.5 seconds to obtain the un-stimulated intensities baseline. The stimulatory waveform is applied for 9 seconds followed by 0.5 seconds of post-stimulation recording to examine the relaxation to the resting state. The stimulatory waveform of the electrical stimulation is specific for each cell type and can vary the magnitude, duration and frequency of the applied current to provide an optimal assay signal.
Data are analyzed and reported as normalized ratios of background-subtracted emission intensities measured in the 460 nm and 580 nm channels. Background intensities are then subtracted from each assay channel. Background intensities are obtained by measuring the emission intensities during the same time periods from identically treated assay wells in which there are no cells. The response as a function of time is then reported as the ratios obtained using the following formula: […]
The data is further reduced by calculating the initial (Ri) and final (Rf) ratios. These are the average ratio values during part or all of the pre-stimulation period, and during sample points during the stimulation period. The response to the stimulus R=Rf/Ri is then calculated and reported as a function of time.
Control responses are obtained by performing assays in the presence of a compound with the desired properties (positive control), such as tetracaine, and in the absence of pharmacological agents (negative control). Responses to the negative (N) and positive (P) controls are calculated as above. The compound antagonist activity A is defined as: […]

Chain of human NaV subtype, like NaV 1.7 (Q15858 whole entry): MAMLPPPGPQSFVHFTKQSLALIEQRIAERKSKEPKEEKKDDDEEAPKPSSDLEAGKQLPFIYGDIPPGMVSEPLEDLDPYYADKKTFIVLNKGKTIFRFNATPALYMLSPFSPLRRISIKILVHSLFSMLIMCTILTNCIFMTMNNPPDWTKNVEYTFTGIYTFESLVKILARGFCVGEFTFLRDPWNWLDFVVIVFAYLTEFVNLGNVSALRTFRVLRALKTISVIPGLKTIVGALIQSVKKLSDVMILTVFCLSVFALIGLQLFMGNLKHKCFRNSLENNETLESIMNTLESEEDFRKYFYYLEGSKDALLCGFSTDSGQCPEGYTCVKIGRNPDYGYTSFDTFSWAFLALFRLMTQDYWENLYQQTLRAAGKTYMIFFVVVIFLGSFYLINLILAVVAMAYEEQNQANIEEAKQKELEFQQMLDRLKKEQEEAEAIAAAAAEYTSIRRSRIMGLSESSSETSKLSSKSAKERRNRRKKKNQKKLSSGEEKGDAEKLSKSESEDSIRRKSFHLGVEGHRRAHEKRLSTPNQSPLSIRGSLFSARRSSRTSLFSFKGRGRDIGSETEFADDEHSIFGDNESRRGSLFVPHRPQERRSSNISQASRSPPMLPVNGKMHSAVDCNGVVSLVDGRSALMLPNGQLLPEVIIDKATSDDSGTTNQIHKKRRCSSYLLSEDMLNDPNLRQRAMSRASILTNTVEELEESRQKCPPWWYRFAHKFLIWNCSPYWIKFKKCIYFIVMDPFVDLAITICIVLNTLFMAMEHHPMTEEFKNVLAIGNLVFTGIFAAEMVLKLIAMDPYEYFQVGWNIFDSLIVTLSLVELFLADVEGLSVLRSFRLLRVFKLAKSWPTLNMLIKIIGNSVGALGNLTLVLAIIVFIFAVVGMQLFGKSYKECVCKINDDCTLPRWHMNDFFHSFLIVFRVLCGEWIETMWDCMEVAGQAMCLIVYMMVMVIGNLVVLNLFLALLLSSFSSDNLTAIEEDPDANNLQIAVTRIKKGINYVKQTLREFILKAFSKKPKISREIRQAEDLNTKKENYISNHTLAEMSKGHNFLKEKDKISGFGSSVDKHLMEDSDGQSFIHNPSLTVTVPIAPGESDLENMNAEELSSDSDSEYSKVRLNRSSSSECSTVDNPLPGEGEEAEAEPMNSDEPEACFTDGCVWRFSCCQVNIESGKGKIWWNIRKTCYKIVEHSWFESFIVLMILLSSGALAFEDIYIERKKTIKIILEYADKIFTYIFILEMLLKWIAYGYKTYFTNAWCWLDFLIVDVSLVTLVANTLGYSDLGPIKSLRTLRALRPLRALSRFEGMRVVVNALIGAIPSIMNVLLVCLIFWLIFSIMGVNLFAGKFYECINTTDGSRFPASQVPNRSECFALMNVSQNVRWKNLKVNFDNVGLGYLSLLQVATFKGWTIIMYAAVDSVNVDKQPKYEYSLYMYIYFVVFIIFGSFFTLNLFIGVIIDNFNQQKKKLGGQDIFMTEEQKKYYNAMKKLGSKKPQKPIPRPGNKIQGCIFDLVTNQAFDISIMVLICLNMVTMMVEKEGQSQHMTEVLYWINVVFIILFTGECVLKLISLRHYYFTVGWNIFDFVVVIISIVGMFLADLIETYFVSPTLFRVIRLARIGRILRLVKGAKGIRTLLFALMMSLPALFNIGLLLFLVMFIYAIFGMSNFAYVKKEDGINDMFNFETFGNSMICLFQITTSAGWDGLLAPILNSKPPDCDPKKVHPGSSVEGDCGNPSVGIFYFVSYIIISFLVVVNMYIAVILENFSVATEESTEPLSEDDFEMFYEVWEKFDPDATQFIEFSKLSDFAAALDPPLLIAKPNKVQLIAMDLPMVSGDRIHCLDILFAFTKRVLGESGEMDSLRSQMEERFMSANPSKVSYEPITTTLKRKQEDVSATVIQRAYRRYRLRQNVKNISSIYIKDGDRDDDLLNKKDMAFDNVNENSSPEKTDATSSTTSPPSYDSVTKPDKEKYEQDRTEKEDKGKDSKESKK

| SMILES | IC50 |
| --- | --- |
| COCC1CN(c2nccs2)CC2(CCN(C(=O)c3ccc(OC(C)C)c(C)c3)CC2)O1 (stereo not shown) [Compound 180] | < 2000 nM |
| O=C(c1ccc(C(O)C2CC2)cc1)N1CCC2(CC1)CN(CC(F)(F)F)CC(c1ccccc1)O2 (stereo not shown) [Compound 59] | < 2000 nM |
| COc1cc(C(=O)N2CCC3(CC2)CN(CC(F)F)CC(c2ccc(F)cc2)O3)ccc1OC(C)C (stereo not shown) [Compound 274] | < 2000 nM |
| Cc1cc(C(=O)N2CCC3(CC2)CN(CC(F)(F)F)CC(C(C)(C)O)O3)ccc1OC(C)C (stereo not shown) [Compound 127] | 2000 to 5000 nM |
| COCC1CN(c2ncccn2)CC2(CCN(C(=O)c3ccc(S(=O)(=O)NC4CC4)cc3)CC2)O1 (stereo not shown) [Compound 198] | > 5000 nM |
| CC(C)Oc1ccc(C(=O)N2CCC3(CC2)CN(CC(F)F)CC(c2ccc(F)cc2)O3)cc1F (stereo not shown) [Compound 244] | < 2000 nM |
| CC(C)Oc1ccc(C(=O)N2CCC3(CC2)CN(CC(F)(F)F)CC(c2ccccc2)O3)cc1F (stereo not shown) [Compound 94] | < 2000 nM |
| COCN1CC(c2cccc(OC)n2)OC2(CCN(C(=O)c3ccc(OC(C)C)c(C)c3)CC2)C1 (stereo not shown) [Compound 256] | < 2000 nM |
| CC#CCN1CC(CC)OC2(CCN(C(=O)c3ccc(OC(C)C)c(Cl)c3)CC2)C1 (stereo not shown) [Compound 52] | < 2000 nM |
| CC#CCN1CC(CC)OC2(CCN(C(=O)c3ccc(OC(C)C)c(F)c3)CC2)C1 (stereo not shown) [Compound 239] | > 5000 nM |
| COc1cc(C(=O)N2CCC3(CC2)CN(CC(F)(F)F)CC(c2ccccc2)O3)ccc1S(C)(=O)=O (stereo not shown) [Compound 172] | > 5000 nM |
| Cc1cc(C(=O)N2CCC3(CC2)CN(c2ncccn2)C(C)(C)CO3)ccc1OC(C)C [Compound 51] | > 5000 nM |
| CCN1CC(c2ccccc2)OC2(CCN(C(=O)c3ccc(C(C)(C)O)cc3)CC2)C1 (stereo not shown) [Compound 158] | > 5000 nM |
| CC#CCN1CC(CC)OC2(CCN(C(=O)c3ccc(C(C)(C)C)c(OC)c3)CC2)C1 (stereo not shown) [Compound 129] | < 2000 nM |
| CC(C)Oc1ccc(C(=O)N2CCC3(CC2)CN(CC(F)(F)F)CC(c2ccccc2)O3)nc1 (stereo not shown) [Compound 177] | < 2000 nM |
| COCC1CN(Cc2ccccc2F)CC2(CCN(C(=O)c3ccc(OC(C)C)c(C)c3)CC2)O1 (stereo not shown) [Compound 102] | < 2000 nM |
| COCC1CN(CC(C)=O)CC2(CCN(C(=O)c3ccc(OC(C)C)c(C)c3)CC2)O1 (stereo not shown) [Compound 113] | > 5000 nM |
| Cc1cc(C(=O)N2CCC3(CC2)CN(CC(F)F)CC(c2cc[nH]n2)O3)ccc1OC(C)C (stereo not shown) [Compound 21] | < 2000 nM |
| COc1cc(C(=O)N2CCC3(CC2)CN(CC(F)F)CC(c2cccc(C)n2)O3)ccc1OC(C)C (stereo not shown) [Compound 253] | 2000 to 5000 nM |
| COc1ccc(C(=O)N2CCC3(CC2)CN(CCC(C)C)C(=O)C(c2ccccc2)O3)cc1C(F)(F)F (stereo not shown) [Compound 186] | < 2000 nM |

| SMILES | IC50 |
| --- | --- |
| COc1cc(C(=O)N2CCC3(CC2)CN(CC(F)(F)F)C(c2ccccc2)CO3)ccc1OC(C)C (stereo not shown) [Compound 104] | < 2000 nM |
| Cc1cc(C(=O)N2CCC3(CC2)CN(CC(F)(F)F)CC(c2ccccc2)O3)ccc1N1CCOCC1 (stereo not shown) [Compound 78] | < 2000 nM |
| Cc1cc(C(=O)N2CCC3(CC2)CN(CC(C)C)CC(c2ccccc2)O3)ccc1OC(C)C (stereo not shown) [Compound 29] | < 2000 nM |
| CCCOCCN1CC(COC)OC2(CCN(C(=O)c3ccc(OC(C)C)c(C)c3)CC2)C1 (stereo not shown) [Compound 107] | < 2000 nM |
| CCC#CCN1CC(COC)OC2(CCN(C(=O)c3ccc(OC(C)C)c(C)c3)CC2)C1 (stereo not shown) [Compound 89] | < 2000 nM |
| COc1cc(C(=O)N2CCC3(CC2)CN(CC(F)F)CC(c2cc[nH]n2)O3)ccc1OC(C)C (stereo not shown) [Compound 210] | > 5000 nM |
| COc1cc(C(=O)N2CCC3(CC2)CN(CC(F)(F)F)CC(c2ncc(C)s2)O3)ccc1OC(C)C (stereo not shown) [Compound 152] | < 2000 nM |
| COCC1CN(C2CCCCCC2)CC2(CCN(C(=O)c3ccc(OC(C)C)c(C)c3)CC2)O1 (stereo not shown) [Compound 201] | < 2000 nM |
| CCN1CC(COC)OC2(CCN(C(=O)c3ccc(OC(C)C)c(C)c3)CC2)C1 (stereo not shown) [Compound 254] | 2000 to 5000 nM |
| COCC1CN(C2CCSCC2)CC2(CCN(C(=O)c3ccc(OC(C)C)c(C)c3)CC2)O1 (stereo not shown) [Compound 131] | < 2000 nM |
| Cc1nc(C(=O)N2CCC3(CC2)CN(CC(F)(F)F)CC(c2ccccc2)O3)ccc1C#N (stereo not shown) [Compound 106] | > 5000 nM |
| CC#CCN1CC(F)(F)OC2(CCN(C(=O)c3ccc(OC(C)C)c(C)c3)CC2)C1 [Compound 154] | > 5000 nM |
| CC(C)Oc1ccc(C(=O)N2CCC3(CC2)CN(CC(F)F)CC(c2ccccn2)O3)cc1Cl (stereo not shown) [Compound 222] | < 2000 nM |
| CCC1CN(c2ncccn2)CC2(CCN(C(=O)c3ccc(C4=CCCC4)c(F)c3)CC2)O1 (stereo not shown) [Compound 130] | > 5000 nM |
| COc1cc(C(=O)N2CCC3(CC2)CN(CC(F)F)CC(c2ccc(F)cc2)O3)ccc1OC(C)(C)C (stereo not shown) [Compound 247] | 2000 to 5000 nM |
| COC(C)(C)COc1ccc(C(=O)N2CCC3(CC2)CN(CC(F)(F)F)CC(c2ccccc2)O3)cc1 (stereo not shown) [Compound 60] | < 2000 nM |
| Cc1cc(C(=O)N2CCC3(CC2)CN(CC(F)F)CC(c2ccccn2)O3)ccc1OCCO (stereo not shown) [Compound 296] | > 5000 nM |
| O=C(c1ccccc1OC(F)F)N1CCC2(CC1)CN(CC(F)(F)F)CC(c1ccccc1)O2 (stereo not shown) [Compound 90] | > 5000 nM |
| COCC1CN(c2ccc(C(F)(F)F)cc2)CC2(CCN(C(=O)c3ccc(OC(C)C)c(C)c3)CC2)O1 (stereo not shown) [Compound 124] | < 2000 nM |
| Cc1cc(C(=O)N2CCC3(CC2)CN(C)CC(c2ccccc2)O3)ccc1OC(C)C (stereo not shown) [Compound 7] | < 2000 nM |

| SMILES | IC50 |
| --- | --- |
| Cc1cc(C(=O)N2CCC3(CC2)CN(CC#N)CC(c2ccccc2)O3)ccc1C(C)(C)O (stereo not shown) [Compound 68] | 2000 to 5000 nM |
| COc1cc(C(=O)N2CCC3(CC2)CN(CC(F)(F)F)CC(c2ccccc2)O3)cc(F)c1OC(C)C (stereo not shown) [Compound 234] | < 2000 nM |
| Cc1cc(C(=O)N2CCC3(CC2)CN(CC(F)F)CC(c2ccc(F)cc2)O3)ccc1S(C)(=O)=O (stereo not shown) [Compound 202] | > 5000 nM |
| CCC1CN(c2ccccn2)CC2(CCN(C(=O)c3ccc(OC(C)C)c(C)c3)CC2)O1 (stereo not shown) [Compound 295] | < 2000 nM |
| CC#CCN1CC(CC)OC2(CCN(C(=O)c3ccc(OCCC)c(C)c3)CC2)C1 (stereo not shown) [Compound 217] | < 2000 nM |
| Cc1nc(C(=O)N2CCC3(CC2)CN(CC#N)CC(c2ccccc2)O3)ccc1OC(C)C (stereo not shown) [Compound 212] | < 2000 nM |
| COCC1CN(CC2CC2)CC2(CCN(C(=O)c3ccc(OC(C)C)c(C)c3)CC2)O1 (stereo not shown) [Compound 287] | < 2000 nM |
| COCC1CN(c2cccnc2)CC2(CCN(C(=O)c3ccc(OC(C)C)c(C)c3)CC2)O1 (stereo not shown) [Compound 291] | < 2000 nM |
| COCC1CN(c2ncccn2)CC2(CCN(C(=O)c3ccc(CC(C)(C)O)cc3)CC2)O1 (stereo not shown) [Compound 240] | > 5000 nM |
| CCOCC1CN(c2ncccn2)CC2(CCN(C(=O)c3ccc(OC(C)C)c(C)c3)CC2)O1 (stereo not shown) [Compound 235] | < 2000 nM |
| Cc1cc(S(C)(=O)=O)ccc1C(=O)N1CCC2(CC1)CN(CC(F)(F)F)CC(c1ccccc1)O2 (stereo not shown) [Compound 108] | > 5000 nM |
| Cc1cnc(C2CN(CC(F)(F)F)CC3(CCN(C(=O)c4ccc(OC(C)C)c(C)c4)CC3)O2)o1 (stereo not shown) [Compound 309] | < 2000 nM |
| COCC1CN(C(C)(C)C)CC2(CCN(C(=O)c3ccc(OC(C)C)c(C)c3)CC2)O1 (stereo not shown) [Compound 160] | 2000 to 5000 nM |
| Cc1cnc(C2CN(C(C)(C)C)CC3(CCN(C(=O)c4ccc(OC(C)C)c(C)c4)CC3)O2)o1 (stereo not shown) [Compound 49] | < 2000 nM |
| COCC1CN(c2ncccn2)CC2(CCN(C(=O)c3ccc(C(C)(C)O)c(F)c3)CC2)O1 (stereo not shown) [Compound 53] | 2000 to 5000 nM |
| COCC1CN(C2CCCCC2)CC2(CCN(C(=O)c3ccc(OC(C)C)c(C)c3)CC2)O1 (stereo not shown) [Compound 204] | < 2000 nM |
| COCN1CC(c2ncccn2)OC2(CCN(C(=O)c3ccc(C4(O)CCC4)cc3)CC2)C1 (stereo not shown) [Compound 264] | > 5000 nM |
| Cc1cn[nH]c1C1CN(CC(F)F)CC2(CCN(C(=O)c3ccc(OC(C)C)c(F)c3)CC2)O1 (stereo not shown) [Compound 298] | < 2000 nM |
